Laboratory results: patent publication US10221163B2 (priority 2015, dated 2019)
Where two headings read alike, the source gives them in different places.

Key:
[1] = system: Pseudomonas aeruginosa MB9798 vs MB9799
Procedure, shortened: (§1)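 PAO1 pair, broth microdilution; fixed β-lactam (imipenem/ceftazidime) at ~CLSI breakpoint + fixed class A/C BLI for AmpC; serial MBLi titration; endpoint = MBLi conc. restoring susceptibility; MB9798:MB9799 ratio = efflux liability.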

[2] = system: Pseudomonas aeruginosa efflux+ (MB9798), IMP-1; type: cell-based; parameters: Concentration of metallo-β-lactamase inhibitor which restores susceptibility of efflux + (MB9798) strain to imipenem: unit not given here; settings: C, D serine β-lactamase inhibitor closely related to relebactam; for P. aeruginosa expressing IMP-1, efflux + (MB9798) MITC95: concentration restoring susceptibility to imipenem at 2 μg/mL in the presence of a class A; for Concentration of metallo-β-lactamase inhibitor which restores susceptibility of efflux + (MB9798) strain to imipenem: imipenem at 2 μg/mL, in the presence of a class A
Procedure, shortened: as §1

[3] = system: Serratia marcescens expressing IMP-1 (CL5741); type: cell-based; settings: for Serratia marcescens expressing IMP-1 (CL5741) MITC95: with imipenem 1 μg/ml, 95% inhibition of bacterial growth; for Serratia marcescens MITC95: IMP-1 strain CL5741, with imipenem 1 μg/ml, 95% inhibition of growth
Procedure, shortened: (§2)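 Colonies grown overnight on blood agar at 35° C were suspended in saline, diluted 1:100 into 1.1×CAMHB and dispensed. Imipenem was added to 1 μg/ml, then test compound. After 22 hours to 24 hours at 35° C, absorbance was recorded.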

[4] = system: Klebsiella pneumoniae expressing VIM-1 (IHMA599644); type: cell-based; settings: for Klebsiella pneumoniae expressing VIM-1 (IHMA599644) MITC95: with imipenem 1 μg/ml, 95% inhibition of bacterial growth; for Klebsiella pneumoniae MITC95: VIM-1 strain IHMA599644, with imipenem 1 μg/ml, 95% inhibition of growth
Procedure, shortened: as §2

[5] = system: Escherichia coli expressing NDM-1 (CLB30005, CLB30016); type: cell-based; settings: with imipenem 1 μg/ml; for Escherichia coli expressing NDM-1 (CLB30016) MITC95: 95% inhibition of bacterial growth; for Escherichia coli MITC95: NDM-1 strain, 95% inhibition of growth
Procedure, shortened: as §2

VIM-1 = VIM-1 (Pseudomonas aeruginosa (strain ATCC 15692 / DSM 22644 / CIP 104116 / JCM 14847 / LMG 12228 / 1C / PRS 101 / PAO1), UniProt A0A0F7KYQ8); test: biochemical; settings: CCF2-FA substrate, 30 pM enzyme, 2 hours at 25° C.
Procedure, shortened: (§3)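 Enzyme activity was measured by fluorescence using CCF2-FA, a cephalosporin-linked 7-hydroxycoumarin/fluorescein substrate, with inhibitor, metallo-β-lactamase and substrate incubated together for 2 hours at 25° C. IC50 came from a 4-parameter fit of inhibition versus log inhibitor concentration.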

IMP-1 = IMP-1 (Serratia marcescens, UniProt P52699); test: biochemical; type: biochemical; settings: CCF2-FA substrate, 2 pM enzyme, 2 hours at 25° C.
Sequence of IMP-1 (P52699 whole entry, looked up, species assumed): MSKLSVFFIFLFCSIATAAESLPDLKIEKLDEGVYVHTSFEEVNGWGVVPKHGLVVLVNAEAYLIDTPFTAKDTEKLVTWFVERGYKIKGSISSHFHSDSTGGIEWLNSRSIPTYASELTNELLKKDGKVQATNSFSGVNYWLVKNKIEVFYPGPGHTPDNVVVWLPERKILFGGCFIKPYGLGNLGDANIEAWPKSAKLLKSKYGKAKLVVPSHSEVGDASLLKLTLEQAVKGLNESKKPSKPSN
Procedure, shortened: as §3

NDM-1 = NDM-1 (Klebsiella pneumoniae, UniProt C7C422); test: biochemical; type: biochemical; settings: CCF2-FA substrate, 1 pM enzyme, 2 hours at 25° C.
Sequence of NDM-1 (C7C422 whole entry, looked up, species assumed): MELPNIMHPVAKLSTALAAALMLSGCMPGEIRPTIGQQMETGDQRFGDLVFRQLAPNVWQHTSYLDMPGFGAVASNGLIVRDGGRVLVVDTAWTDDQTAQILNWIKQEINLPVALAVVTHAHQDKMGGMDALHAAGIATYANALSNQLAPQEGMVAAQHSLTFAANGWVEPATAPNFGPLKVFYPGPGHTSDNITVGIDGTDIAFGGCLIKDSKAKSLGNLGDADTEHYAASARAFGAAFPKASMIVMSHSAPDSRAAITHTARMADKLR
Procedure, shortened: as §3

[6] = system: Pseudomonas aeruginosa efflux− (MB9799), IMP-1; type: cell-based; settings: C, D serine β-lactamase inhibitor closely related to relebactam; for P. aeruginosa expressing IMP-1, efflux − (MB9799) MITC95: concentration restoring susceptibility to imipenem at 2 μg/mL in the presence of a class A; for Concentration of metallo-β-lactamase inhibitor which restores susceptibility of efflux − (MB9799) strain to imipenem: imipenem at 2 μg/mL, in the presence of a class A
Procedure, shortened: as §1

[7] = ratio MITC95 PA_9798/MITC95 PA_9799
[8] = fluorescence assay, read-out: VIM-1 IC50
[9] = fluorescence assay, read-out: IMP-1 IC50
[10] = fluorescence assay, read-out: NDM-1 IC50
[11] = fold difference between efflux+ (MB9798) and efflux− (MB9799) strains, imipenem at 2 μg/mL

Structure (SMILES)	Efflux ratio [1, 7]	P. aeruginosa expressing IMP-1, efflux + (MB9798) MITC95 [2] [µM]	Serratia marcescens expressing IMP-1 (CL5741) MITC95 [3] [µM]	Klebsiella pneumoniae expressing VIM-1 (IHMA599644) MITC95 [4] [µM]	Escherichia coli expressing NDM-1 (CLB30016) MITC95 [5] [µM]	IC50 (VIM-1; [8]) [nM]	IC50 (IMP-1; IMP-1 IC50, fluorescence assay) [nM]	IC50 (NDM-1; NDM-1 IC50, fluorescence assay) [nM]	P. aeruginosa expressing IMP-1, efflux − (MB9799) MITC95 [6] [µM]	Serratia marcescens MITC95 [3] [µM]	Klebsiella pneumoniae MITC95 [4] [µM]	Escherichia coli MITC95 [5] [µM]	IC50 (IMP-1; [9]) [nM]	IC50 (NDM-1; [10]) [nM]	Efflux ratio [1, 11]	Concentration of metallo-β-lactamase inhibitor which restores susceptibility of efflux + (MB9798) strain to imipenem [2]	Concentration of metallo-β-lactamase inhibitor which restores susceptibility of efflux − (MB9799) strain to imipenem [6]	IC50 (VIM-1; VIM-1 IC50, fluorescence assay) [nM]
Nc1nc2c(-c3ccc(S(=O)(=O)N4CCC[C@@H](N)C4)c(S(N)(=O)=O)c3-c3nnn[nH]3)cccc2s1 [Example 68, 3-(2-amino-1,3-benzothiazol-4-yl)-6-{[(3R)-3-aminopiperidin-1-yl]sulfonyl}-2-(1H-tetrazol-5-yl)benzenesulfonamide]	2.00	3.125	1.563	3.125	3.125	3.7	1.97	1.01	1.563	–	–	–	–	–	–	–	–	–
NCCNS(=O)(=O)c1ccc(-c2cccc(SCC(N)CO)c2)c(-c2nn[nH]n2)c1S(N)(=O)=O (stereo not drawn) [Example 354, 3′-((2-amino-3-hydroxypropyl)thio)-N4-(2-aminoethyl)-2-(2H-tetrazol-5-yl)-[1,1′-biphenyl]-3,4-disulfonamide]	4.00	1.563	–	–	–	0.108	–	–	0.3906	1.563	0.7813	0.3906	0.453	0.817	–	–	–	–
NC[C@H](N)CNS(=O)(=O)c1ccc(-c2ccc(N)nc2)c(-c2nn[nH]n2)c1S(N)(=O)=O [Example 415]	–	–	–	–	–	0.425	–	–	–	1.172	3.125	0.1953	0.801	0.361	1.00	1.563	1.563	–
Nc1nc2c(-c3ccc(S(=O)(=O)N4CC[S+]([O-])CC4)c(S(N)(=O)=O)c3-c3nnn[nH]3)cccc2s1 [Example 44, 3-(2-amino-1,3-benzothiazol-4-yl)-6-[(1-oxidothiomorpholin-4-yl)sulfonyl]-2-(1H-tetrazol-5-yl)benzenesulfonamide]	2.00	12.5	6.25	25	25	2.06	–	–	6.25	–	–	–	2.22	0.872	–	–	–	–
Cn1c(N)nc2c(-c3ccc(S(N)(=O)=O)c(S(N)(=O)=O)c3-c3nn[nH]n3)cccc21 [Example 5, 4-(2-amino-1-methyl-1H-benzo[d]imidazol-4-yl)-3-(2H-tetrazol-5-yl)benzene-1,2-disulfonamide]	2.00	1.781	0.8906	1.781	0.25	0.146	–	–	0.8906	–	–	–	0.346	0.197	–	–	–	–
Nc1nc2c(-c3ccc(S(=O)(=O)N4CC[C@H](N)C4)c(S(N)(=O)=O)c3-c3nnn[nH]3)cccc2s1 [Example 61, 3-(2-amino-1,3-benzothiazol-4-yl)-6-{[(3S)-3-aminopyrrolidin-1-yl]sulfonyl}-2-(1H-tetrazol-5-yl)benzenesulfonamide]	1.00	1.563	3.125	3.125	3.125	–	–	–	1.563	–	–	–	1.47	0.976	–	–	–	1.44
COCCNCCNS(=O)(=O)c1ccc(-c2cccc3sc(N)nc23)c(-c2nnn[nH]2)c1S(N)(=O)=O [Example 85, 4-(2-aminobenzo[d]thiazol-4-yl)-N1-(2-((2-methoxyethyl)amino)ethyl)-3-(1H-tetrazol-5-yl)benzene-1,2-disulfonamide]	1.00	1.563	3.125	6.25	6.25	0.147	–	–	1.563	–	–	–	0.205	0.0351	–	–	–	–
NCCNS(=O)(=O)c1ccc(-c2ccc3ncn(CCN)c3c2)c(-c2nn[nH]n2)c1S(N)(=O)=O [Example 348, N^1-(2-aminoethyl)-4-(1-(2-aminoethyl)-1H-benzo[d]imidazol-6-yl)-3-(2H-tetrazol-5-yl)benzene-1,2-disulfonamide]	4.00	3.125	–	–	–	0.536	–	–	0.7813	1.563	1.563	1.563	3.33	1.47	–	–	–	–
Cc1cc(-c2ccc(S(=O)(=O)NC[C@@H](O)CN)c(S(N)(=O)=O)c2-c2nn[nH]n2)cnc1N [Example 468, (S)-N1-(3-amino-2-hydroxypropyl)-4-(6-amino-5-methylpyridin-3-yl)-3-(2H-tetrazol-5-yl)benzene-1,2-disulfonamide]	–	–	–	–	–	0.0869	–	–	–	0.7813	3.125	0.3906	0.569	0.133	2.00	1.563	0.7813	–
Nc1nc2c(-c3ccc(S(=O)(=O)N[C@@H]4CNC[C@@H]4F)c(S(N)(=O)=O)c3-c3nnn[nH]3)cccc2s1 [Example 58, 4-(2-amino-1,3-benzothiazol-4-yl)-N1-[(3R,4S)-4-fluoropyrrolidin-3-yl]-3-(1H-tetrazol-5-yl)benzene-1,2-disulfonamide]	1.00	1.563	1.563	3.125	1.563	0.404	–	–	1.563	–	–	–	0.759	0.0686	–	–	–	–
